Laboratory results published in patent US20250295625A1, “AGENT FOR PROMOTING ODONTOBLAST PROPAGATION AND DIFFERENTIATION” (SUN MEDICAL CO., LTD., priority 2019, published 2025).

Key:
Format in all cases: cell-based
[1] = test system: human dental pulp stem cell (hDPSC); test: Calcification state of hDPSC culture (alkaline phosphatase measurement, alizarin red S staining); settings: ALPase at 14, 21, 28 days (FIG. 8), alizarin red S at 30 and 32 days (FIGS. 9A, 9B)
Procedure: When DMEM containing the odontoblast proliferation/differentiation promoting agent of Example 12 and ultrapure water (control) therein was allowed to stand for 14, 21, and 28 days, the calcification state thus obtained was evaluated via alkaline phosphatase (ALPase) measurement.
Further, when DMEM containing the odontoblast proliferation/differentiation promoting agents of Example 12 and Comparative Examples 1 to 4 and ultrapure water (control) therein was allowed to stand for 30 and 32 days, the calcification state thus obtained was evaluated via alizarin red S staining measurement. The evaluation of the calcification state was performed using one-way ANOVA and Tukey's HSD post-hoc test with a significance level set at 1%

[2] = test system: human dental pulp stem cell (hDPSC); test: Differentiation test of human dental pulp stem cells into odontoblasts (real-time PCR); settings: sample 5% by mass, 24 days, FIGS. 7A to 7E; for odontoblast-specific genes (BSP, rOPN, rOCB, rDSPP, and rDMP-1) mRNA expression: β-actin internal standard
Procedure: A DMEM for culturing hDPSC was prepared in the same manner as in the measurement of cell survival rate. […] The concentration of the sample in each odontoblast proliferation/differentiation promoting agent was 5% by mass. • Calcium salt of […]: […] (Comparative Example 1), • Calcium hydroxide: CH (Comparative Example 2), • Mineral trioxide aggregate: […] As an internal standard, β-actin was used. mRNA expression levels of RNA-bone sialoprotein (BSP) are shown in FIG. 7A. mRNA expression levels of RNA-osteopontin (rOPN) are shown in FIG. 7B. mRNA expression levels of RNA-osteocalcin (rOCN) are shown in FIG. 7C. mRNA expression levels of RNA-dentin sialophosphoprotein (rDSPP) are shown in FIG. 7D. mRNA expression levels of RNA-dentin matrix protein (rDMP-1) are shown in FIG. 7E.

[3] = test system: MDPC-23 cell (rat dental papilla-derived cell), a rat odontoblast-like cell line; test: Odontoblast proliferation test (CCK-8 assay); settings: FIG. 4
Procedure: A Dulbecco's modified Eagle's medium (DMEM) added with 5% by mass of fetal bovine serum (FBS) was prepared. Then, an MDPC-23 cell (rat dental papilla-derived cell), which is a rat odontoblast-like cell line, was cultured in DMEM. Subsequently, 0.1 mL of DMEM where the MDPC-23 cells were cultured was injected into each well in a microplate (96 wells) so that 1000 MDPC-23 cells were distributed into each well.
Next, the odontoblast proliferation/differentiation promoting agents of Examples 1 to 10 and ultrapure water (control) were individually added to corresponding wells. Then, the added mixture was allowed to stand at ordinary temperature (25° C.) for 5 days. Thereafter, the proliferation of the MDPC-23 cells was evaluated using a kit for measuring the number of living cells (CCK-8: Cell Counting Kit-8).
In the CCK-8 assay, a microplate reader (measurement wavelength: 450 nm) was used. The CCK-8 assay was repeated 6 times.
The results of the CCK-8 assay in Examples 1 to 5 and the control were shown in FIG. 3 and the results of the CCK-8 assay in Examples 4, 6 to 10 and the control were shown in FIG. 4.

[4] = test system: mesenchymal stem cell (MSC); test: Differentiation test of mesenchymal stem cells into odontoblasts (real-time PCR); settings: MSC, 10, 17, and 24 days
Procedure: A DMEM for culturing mesenchymal stem cell (MSC) was prepared in the same manner as the measurement of cell survival rate, except that hDPSC was replaced with MSC.
Next, the odontoblast proliferation/differentiation promoting agent of Example 12 and ultrapure water (control) were individually dissolved directly in the DMEM for culturing MSC. Then, DMEM was subjected to real-time PCR when allowed to stand for 10, 17, and 24 days. As an internal standard, β-actin was used.
mRNA expression levels of RNA-bone sialoprotein (BSP) are shown in FIG. 8A. mRNA expression levels of RNA-dentin matrix protein (rDMP-1) are shown in FIG. 8B.

C=C(C)C(=O)OCCOC(=O)c1ccc(C(=O)[O-])c(C(=O)[O-])c1.[Ca+2] [C-MET, calcium salt of 4-methacryloyloxyethyltrimellitic acid]
calcification [1]: promoted | differentiation of hDPSC into odontoblasts [2]: promoted | odontoblast-specific genes (BSP, rOPN, rOCB, rDSPP, and rDMP-1) mRNA expression [2]: increased | effect of promoting proliferation and/or differentiation of the MDPC-23 cells ([3]; as the concentration of C-MET was increased to 500 μg/mL (Example 7)): gradually improved | effect of promoting proliferation and/or differentiation of the MDPC-23 cells ([3]; when the concentration of C-MET exceeded 500 μg/mL): not found any further improvement | differentiation of MSC into odontoblasts [4]: promoted | odontoblast-specific genes (BSP, rDMP-1) mRNA expression ([4]; β-actin internal standard): increased

[Ca+2].[OH-].[OH-] [CH, Calcium hydroxide, reference compound]
calcification [1]: calcification was found | differentiation of hDPSC into odontoblasts [2]: not observed | odontoblast-specific genes (BSP, rOPN, rOCB, rDSPP, and rDMP-1) mRNA expression [2]: no increase

[Ca+2].[Cl-].[Cl-] [CaCl2, Calcium chloride]
calcification [1]: calcification was found
